ChEMBL document CHEMBL4052709, “Novel analogs of N-acylhydroxyethylaminomethyl-4H-chromen-4-one scaffold as IL-5 inhibitors” (Bioorg Med Chem, 2017)

Columns and labels:
[1] = biological target: T1, Interleukin-5 (Mus musculus) (UniProt P04401); assay: Inhibition of IL-5 in mouse Y16 cells assessed as reduction in cell proliferation at 30 uM after 48 hrs by WST-1 assay relative to control; format: cell-based
T1 sequence (whole entry): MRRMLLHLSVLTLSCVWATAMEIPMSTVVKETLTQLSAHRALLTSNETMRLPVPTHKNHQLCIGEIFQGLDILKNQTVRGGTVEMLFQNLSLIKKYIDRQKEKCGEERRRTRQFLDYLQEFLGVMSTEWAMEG

[2] = biological target: T1, Interleukin-5 (Mus musculus); assay: Inhibition of IL-5 in mouse Y16 cells assessed as reduction in cell proliferation at 50 uM after 48 hrs by WST-1 assay relative to control; format: cell-based

inhibition [1] | inhibition [2] | SMILES
63% |  | CCC(=O)N(CCO)Cc1coc2cccc(OCC3CCCCC3)c2c1=O
89% |  | CCOC(=O)N(CCO)Cc1coc2cccc(OCC3CCCCC3)c2c1=O
92% |  | COc1ccc(CC(=O)N(CCO)Cc2coc3cccc(OCC4CCCCC4)c3c2=O)cc1
95% |  | O=C(Cc1ccccc1)N(CCO)Cc1coc2cccc(OCC3CCCCC3)c2c1=O
84% |  | O=C(Oc1ccccc1)N(CCO)Cc1coc2cccc(OCC3CCCCC3)c2c1=O
80% |  | COc1ccc(NC(=O)N(CCO)Cc2coc3cccc(OCC4CCCCC4)c3c2=O)cc1
95% |  | O=C(NCc1ccccc1)N(CCO)Cc1coc2cccc(OCC3CCCCC3)c2c1=O
4% |  | O=C(Nc1ccc(Cl)cc1)N(CCO)Cc1coc2cccc(OCC3CCCCC3)c2c1=O
61% |  | CCCC(=O)N(CCO)Cc1coc2cccc(OCC3CCCCC3)c2c1=O

Further lines, the molecule ahead of its results:

SMILES | inhibition [1] | inhibition [2]
CCCNC(=O)N(CCO)Cc1coc2cccc(OCC3CCCCC3)c2c1=O | 15% | 
O=c1c(-c2ccc(O[C@H]3O[C@@H](CO)[C@H](O)[C@@H](O)[C@@H]3O)cc2)coc2cc(O)cc(O)c12 |  | 79.1%
O=C(Nc1ccccc1)N(CCO)Cc1coc2cccc(OCC3CCCCC3)c2c1=O | 61% | 
CC(C)(C)CCOc1cccc2occ(CN(CCO)C(=O)Cc3ccccc3)c(=O)c12 | 46% | 
CC(C)CCOc1cccc2occ(CN(CCO)C(=O)Nc3ccccc3)c(=O)c12 | 35% | 
CCNC(=O)N(CCO)Cc1coc2cccc(OCC3CCCCC3)c2c1=O | 7% | 
O=C(NC1CCCCC1)N(CCO)Cc1coc2cccc(OCC3CCCCC3)c2c1=O | 85% | 
CC(C)CCOc1cccc2occ(CN(CCO)C(=O)Oc3ccccc3)c(=O)c12 | 42% | 
CC(C)(C)CCOc1cccc2occ(CN(CCO)C(=O)Nc3ccccc3)c(=O)c12 | 47% | 
CC(C)(C)CCOc1cccc2occ(CN(CCO)C(=O)Oc3ccccc3)c(=O)c12 | 36% | 
CC(C)CCOc1cccc2occ(CN(CCO)C(=O)Cc3ccccc3)c(=O)c12 | 37% | 
CC(C)NC(=O)N(CCO)Cc1coc2cccc(OCC3CCCCC3)c2c1=O | 6% | 
O=C(NCCCc1ccccc1)N(CCO)Cc1coc2cccc(OCC3CCCCC3)c2c1=O | 95% | 
